Measured values taken from US12201669B2, “Small molecule suppressors of APOE gene expression and cerebral vascular amyloid pathology” (Massachusetts Institute of Technology, priority 2021, dated 2025).

Tests used:
APOE4/5×FAD mice = conditions: mouse, in vivo
APOE [1] = conditions: E4 pericytes, earlier work of the inventors; cited from earlier work
APOE [2] = assay: APOE expression by qRT-PCR in APOE4/4 pericytes treated with cyclosporin analogs; type: cell-based, human; conditions: compared with cyclosporin A and FK506
Text: FIGS. 2A-2D show APOE expression measured by qRT-PCR in APOE4/4 pericytes following treatment with Cyclosporin A (FIG. 2A), FK506 (FIG. 2B), Cyclosporin D (FIG. 2C), Cyclosporin H (FIG. 2D). One-way ANOVA with Bonferroni's Multiple Comparison test, 6 replicates per a timepoint.
FK506 and cyclosporin A can reduce the expression of APOE in human pericytes and brain cells and reverse or prevent cerebrovascular pathologies associated with Alzheimer's Disease such as cerebral amyloid angiopathy. Both cyclosporine A and FK506 have immunosuppressant activity. […] Results showing APOE expression after APOE4 pericytes were treated with Cyclosporin analogs for two weeks are depicted in FIG. 1. Following treatment with Cyclosporin A, FK506, Cyclosporin D, Cyclosporin H, APOE expression was measured by qRT-PCR in APOE4/4 pericytes (see FIGS. 2A-2D).

**Q.** For C=CC[C@@H]1/C=C(\C)C[C@H](C)C[C@H](OC)[C@H]2O[C@@](O)(C(=O)C(=O)N3CCCC[C@H]3C(=O)O[C@H](/C(C)=C/[C@@H]3CC[C@@H](O)[C@H](OC)C3)[C@H](C)[C@@H](O)CC1=O)[C@H](C)C[C@@H]2OC [FK506], which “toxicity compared to cyclosporine treated mice” value (APOE4/5×FAD mice) is on record?
**A.** less toxicity

**Q.** Which APOE gene expression (APOE [1]) does the source give for O=C1C=CC(=O)C2=C1C1c3ccccc3C2c2ccccc21 [INCA6] here?
**A.** reduction

**Q.** What about the APOE protein (APOE [1]) of the same molecule?
**A.** reduction

**Q.** Which “kinetics of APOE expression reduction” value (APOE [2]) does the source give for C/C=C/C[C@@H](C)[C@@H](O)[C@H]1C(=O)N[C@@H](C(C)C)C(=O)N(C)CC(=O)N(C)[C@@H](CC(C)C)C(=O)N[C@@H](C(C)C)C(=O)N(C)[C@@H](CC(C)C)C(=O)N[C@@H](C)C(=O)N[C@H](C)C(=O)N(C)[C@@H](CC(C)C)C(=O)N(C)[C@@H](CC(C)C)C(=O)N(C)[C@@H](C(C)C)C(=O)N1C [cyclosporin D] here?
**A.** faster kinetics

**Q.** What about the “potency in reducing APOE expression (able to reduce at lower doses)” value (APOE [2]) of the same molecule?
**A.** significantly more potent
